The values that follow come from PMC10704561, “Multi-Photon-Sensitive Chromophore for the Photorelease of Biologically Active Phenols” (ACS Chemical Neuroscience, 2023).

Data set [1] is described as follows: Solubility in KMOPS buffer pH 7.2. The following applies: aqueous buffer; KMOPS buffer, pH 7.2; read-out: solubility. The format is physicochemical. The source says:
The photochemical and photophysical properties were investigated in a simulated physiological buffer (KMOPS, pH 7.2) and compared with the literature data for CyHQ-O-DA (Table 1). […] For this derivative, 10% CH3CN in the buffer was used to ensure complete solubilization for the photochemistry experiments. The spontaneous hydrolysis in the dark was monitored over a period of 7 days and no significant hydrolysis was detected for any of the constructs. The molar absorptivity at the wavelength used for 1PE photolysis (ε365) ranged between 4800 and 5670 M^–1 cm^–1, in line with the values of most CyHQ-based PPGs.
The photochemical behavior of constructs 4–7c was investigated in KMOPS buffer at the concentration of 0.1 mM. Under these conditions, all compounds were soluble except for the VNA analogue 6c, which, because of the lipophilicity of the vanilloid, required 20% CH3CN for full solubilization. The stability toward hydrolysis in the dark was monitored over a week, and no significant decomposition was detected for any probe. All constructs were successfully photolyzed after light exposure, as shown in the time courses of the photolysis reactions (Figure 3). MeO-CyHQ constructs 4c, 6c, and 7c were photoactivated with excellent quantum efficiency and sensitivities, and good chemical yields were obtained by monitoring the appearance of the released bioeffector over the time course of the photoreaction (Table 1). […] We believe this effect is due to the presence of the thiophene ring, a well-known photoactive group,[51] which could act as an energy sink in the excited state and quench the photochemical reaction.

Data set [2] in a line: UV-vis spectra and molar extinction coefficient in KMOPS buffer. The data set is classed as physicochemical. The following applies: 0.1 mM in KMOPS buffer, pH 7.2 (3d, 6c: 10 or 20% CH3CN added). As to the method: A 100 μM solution of each protected phenol was prepared in KMOPS buffer (20% CH3CN was used as a cosolvent for compounds 3d and 6c). The UV–vis spectra of these solutions were recorded at between 250 and 500 nm. All of the measurements were repeated in triplicate, and the absorbance values were averaged. The Beer–Lambert law, ε = A(cl)^−1, was used for the calculation of ε values at λ = 365 nm, where A is the absorbance value measured at 365 nm, c is the concentration of the sample, and l is the cuvette length (1 cm). See the Supporting Information for the spectra.

Data set [3] is described as follows: Spontaneous hydrolysis in the dark. The format is physicochemical. The following applies: 0.1 mM in KMOPS pH 7.2, dark, 7 days. As to the method: A 0.1 mM solution of each compound was prepared in KMOPS buffer. For compounds 3d and 6c, 20% CH3CN was used as a cosolvent. The solutions were kept in the dark for 7 days, and the percentage of the starting materials was determined by periodic HPLC analysis (Supporting Information, HPLC Data).

Data set [4] has as its system GRAB5-HT. In words: Activation of GRAB5-HT on HCT 116 cells by photoreleased serotonin. The format is cell-based. As to the method: (§1) HCT 116 cells were grown in Dulbecco’s […] medium (DMEM) supplemented with 10% fetal bovine serum (FBS), 1% nonessential amino acids (NEAA), and maintained at 37 °C and 5% CO2. HEK 293 cells stably expressing TRPV1 channels were grown as previously described.[62]
(§2) An Olympus FluoView FV1000MPE confocal microscope was employed to image and record cells plated onto 35 mm glass-bottom 4-well plates. A 488 nm ion laser excited the dopamine and serotonin sensors dLight 1.2 and GRAB5-HT, respectively, and Fluo-4 calcium dye. FluoView 10-ASW version 4.0 (Olympus), ImageJ-Fiji, and DeltaGraph (Red Rock Software) were used for capturing, extracting, and processing the collected data. Photoactivation was conducted with 405 nm (100% laser power, 1PE) or 720 nm (10% laser power, 24 mW, 2PE) light for MeO-CyHQ-O-DA and MeO-CyHQ-O-5HT or 740 nm (20% laser power, 15 mW light) for MeO-CyHQ-O-VNA and MeO-CyHQ-O-EG. Images were captured by using a 60× immersion lens.
HCT 116 cells were grown to 70% confluency on specialized glass-bottom plates for imaging. After 24 h, the cells were transfected (70% efficiency) with either dLight 1.2 or GRAB5-HT. Before imaging, the DMEM was discarded and the cells were washed twice with HBSS. HBSS (500 μL) was added per well for imaging. DMSO was used to dissolve the compounds CyHQ-O-DA, MeO-CyHQ-O-DA, and MeO-CyHQ-O-5HT to make 1 mM stock solutions. These were then added to the wells to obtain the desired final concentrations, keeping the DMSO concentration to less than 1%, which is tolerated by the cells. Control experiments included optimization of the response of the dLight 1.2 and GRAB5-HT sensors to the release of dopamine and serotonin, respectively, through exposure to different concentrations of CyHQ-O-DA, MeO-CyHQ-O-DA, and MeO-CyHQ-O-5HT at different durations of 405 nm light. Optimizations were conducted in a similar manner for activation through 2PE. […]

Data set [5] can be described thus: One-photon excitation (1PE) photolysis with 365 nm LED, HPLC quantification. The data set is classed as physicochemical. Conditions: for t90% (time required to consume 90% of the starting material): 1PE 365 nm LED, lamp intensity differs per compound (Table S1). As to the method: A 0.1 mM solution (3 mL) of each protected phenol in KMOPS buffer (10 or 20% CH3CN was used as a cosolvent for 3d and 6c) was placed in a 3 mL quartz cuvette along with a stirring bar. The solution was irradiated with stirring using a 365 nm LED lamp (Cairn OptoLED Lite). At different time intervals, 80 μL aliquots of the solution were taken out and analyzed by uHPLC (Agilent 1290 Infinity series), monitoring the AUC at 320 nm (Supporting Information, HPLC Data). An external standard calibration method of quantification was used for the calibration of the samples. The experiments were repeated in sets of three. A gradient elution with a flux rate of 0.3 mL/min using a mobile phase comprising A = 0.1% trifluoroacetic acid in water and B = acetonitrile (starting from 5% B to 100% over 10 min and re-equilibrating to 5% B before the next run) was used for the separations. A comparison of the AUC with the calibration curves of the substrates (obtained from known concentration) determined the percentages of the remaining starting materials. The percentages of the remaining starting materials were plotted versus time. The time to 90% of decomposition of the substrate (t90% values) was obtained by fitting a single exponential decay curve to the data using DeltaGraph (Red Rock Software). The following equation was used to calculate the quantum yield (Φu) of each photolysis reaction:[42],[47],[56],[57] Φu = (I σ t90%)^−1, where I is the irradiation intensity (determined by potassium ferrioxalate actinometry and measured in Einstein cm^–2 s^–1),[58] σ is the decadic extinction coefficient (1000 × ε) at 365 nm, and t90% is the time required to consume 90% of the starting material. See Supporting Information Table S1 for the I, σ, and t90% data.

Data set [6] relates to dLight 1.2. In words: Activation of dLight 1.2 on HCT 116 cells by photoreleased dopamine. The data set is classed as cell-based. The following applies: for dLight 1.2 response after photoactivation (1PE): 10 μM. As to the method: as §1, §2
HCT 116 cells were grown to 70% confluency on specialized glass-bottom plates for imaging. After 24 h, the cells were transfected (70% efficiency) with either dLight 1.2 or GRAB5-HT. Before imaging, the DMEM was discarded and the cells were washed twice with HBSS. HBSS (500 μL) was added per well for imaging. DMSO was used to dissolve the compounds CyHQ-O-DA, MeO-CyHQ-O-DA, and MeO-CyHQ-O-5HT to make 1 mM stock solutions. These were then added to the wells to obtain the desired final concentrations, keeping the DMSO concentration to less than 1%, which is tolerated by the cells. Control experiments included optimization of the response of the dLight 1.2 and GRAB5-HT sensors to the release of dopamine and serotonin, respectively, through exposure to different concentrations of CyHQ-O-DA, MeO-CyHQ-O-DA, and MeO-CyHQ-O-5HT at different durations of 405 nm light. Optimizations were conducted in a similar manner for activation through 2PE. Light dose–response curves were generated by applying a 405 nm light pulse for 1, 10, 50, 100, 200, 300, 400, 500, 600, 750, and 1000 ms at 50 frame intervals for CyHQ-O-DA, MeO-CyHQ-O-DA, and MeO-CyHQ-O-5HT.

Details of data set [7]: method as in PMID 32077679. The following applies: KMOPS buffer, pH 7.2; cited from earlier work.
On the set-up of data set [8]: method as in PMID 32077679. The following applies: KMOPS buffer, pH 7.2; cited from earlier work. The source holds these as a separate data set.
Details of data set [9]: method as in PMID 32077679. The following applies: cited from earlier work.

Molecules are shown by their SMILES. Where two headings read alike, the source gives them in different places. Where only a bound is given, the exact number is not on record here.

`COc1cc(COc2ccc3[nH]cc(CCN)c3c2)nc2c(C#N)c(O)ccc12.O=C(O)C(F)(F)F` [4c, 2-(5-((8-Cyano-7-hydroxy-4-methoxyquinolin-2-yl)methoxy)-1H-indol-3-yl)ethan-1-aminium 2,2,2-trifluoroacetate]: the solubility in data set [1] is > 100 µM. In data set [2], this molecule came in with a ε365 of 5400 M^–1 cm^–1 and a λmax of 355 nm. In addition, the “τd (time constant of spontaneous hydrolysis in buffer in the dark at room temperature)” value in [3] is listed as “nh (No hydrolysis (<5% detected after 7 days))”. Moreover, the “GRAB5-HT response after photoactivation (1PE)” value in [4] (20 μM, 20 ms burst of 405 nm light) is “robust response”. Moreover, in [4] (200 μM, 200 ms pulse of 720 nm light), the “GRAB5-HT response after photoactivation (2PE)” value was “robust response”. Also, the “light pulse duration at which the GRAB5-HT response plateaus” value in data set [4] (405 nm (1PE), 20 μM) is given as “around 200 ms”. In addition, the “t90% (time required to consume 90% of the starting material)” value in data set [5] came to 18.4 s.

Consider `NCCc1ccc(O)c(O)c1` [dopamine, reference compound], for which the “dLight 1.2 response to bulk addition” value in [6] (100 μM, no photoactivation) is listed as “increase in fluorescence output”.

Take `N#Cc1c(O)ccc2ccc(COc3cc(CCN)ccc3O)nc12` [CyHQ-O-DA]: the solubility in data set [7] was >100 µM. Also, in [8], the ε365 is 5300 M^–1 cm^–1 and the λmax is 365 nm. The “dLight 1.2 response after photoactivation (1PE)” value in data set [6] (405 nm light pulse) is given as “increase in fluorescence output”. The “τd (time constant of spontaneous hydrolysis in buffer in the dark at room temperature)” value in [9] was “nh ^g (No hydrolysis (<5% detected after 7 days))”.

On to `COc1cc(COc2ccc(CCN)cc2O)nc2c(C#N)c(O)ccc12.O=C(O)C(F)(F)F` [3c, 2-(4-((8-Cyano-7-hydroxy-4-methoxyquinolin-2-yl)methoxy)-3-hydroxyphenyl)ethan-1-aminium 2,2,2-trifluoroacetate], for which the solubility in [1] was > 100 µM. In data set [2], this molecule displayed a ε365 of 5670 M^–1 cm^–1 and a λmax of 354 nm. Also, the “τd (time constant of spontaneous hydrolysis in buffer in the dark at room temperature)” value in data set [3] is given as “nh (No hydrolysis (<5% detected after 7 days))”. In addition, in data set [6] (10 ms flash of 405 nm light), the “dLight 1.2 response after photoactivation (1PE)” value was “robust response”. In addition, the “dLight 1.2 response after photoactivation (2PE)” value in data set [6] (100 μM, 200 ms flash of 720 nm light) was “activated dLight 1.2”. In data set [5], the “t90% (time required to consume 90% of the starting material)” value is listed as 25.4 s. In addition, the “irradiation time to complete the 1PE photolysis reaction” value in data set [5] (365 nm) was “less than 1 min”.
